Experimental data published in ChEMBL document CHEMBL1158205, “Antineoplastic agents. 340. Isolation and structural elucidation of bryostatins 16-18” (J Nat Prod, 1996).
Values after ≈ are worked out from the molar mass of the structure shown.

What was measured:
[1] = biological target: Protein kinase C alpha type (Homo sapiens, UniProt P17252); experiment: Displacement of [3H]PDBu form PKCalpha
[2] = tested on: A498; experiment: Growth inhibition of human A498 cells by NCI-method; assay type: functional
[3] = tested on: P388; experiment: Cytotoxicity against mouse P388 cells; assay type: functional; conditions: read-out: ED50 (the source's name)
[4] = tested on: NCI-H460; experiment: Growth inhibition of human NCI-H460 cells by NCI-method; assay type: functional
[5] = tested on: OVCAR-3; experiment: Growth inhibition of human OVCAR-3 cells by NCI-method; assay type: functional
[6] = tested on: SK-MEL-5; experiment: Growth inhibition of human SK-MEL-5 cells by NCI-method; assay type: functional
[7] = tested on: KM-20L2; experiment: Growth inhibition of human KM20L2 cells by NCI-method; assay type: functional
[8] = tested on: SF-295; experiment: Growth inhibition of human SF295 cells by NCI-method; assay type: functional

| SMILES | Ki [1] [nM] | GI50 [2] [µg/mL] | EC50 [3] [µg/mL] | GI50 [4] [µg/mL] | GI50 [5] [µg/mL] | GI50 [6] [µg/mL] | GI50 [7] [µg/mL] | GI50 [8] [µg/mL] |
| --- | --- | --- | --- | --- | --- | --- | --- | --- |
| COC(=O)/C=C1/C[C@H]2C[C@]3(O)O[C@H](C[C@@H](O)CC(=O)O[C@@H]([C@@H](C)O)C[C@@H]4C/C(=C\C(=O)OC)C[C@@](O)(O4)C(C)(C)/C=C/[C@@H](C1)O2)C[C@H](OC(=O)C(C)(C)C)C3(C)C [BRYOSTATIN 10] | 1.56 | – | – | – | – | – | – | – |
| COC(=O)/C=C1/C[C@H]2C[C@]3(O)O[C@H](C[C@@H](O)CC(=O)O[C@@H]([C@@H](C)O)C[C@@H]4C/C(=C\C(=O)OC)C=C(O4)C(C)(C)/C=C/[C@@H](C1)O2)C[C@H](OC(=O)C(C)(C)C)C3(C)C [BRYOSTATIN 16] | 118 | 1.9 (≈ 2.4 µM) | 0.0093 (≈ 0.0118 µM) | 0.019 (≈ 0.024 µM) | 1.9 (≈ 2.4 µM) | 1.2 (≈ 1.52 µM) | 2.2 (≈ 2.78 µM) | 1.4 (≈ 1.77 µM) |
| COC(=O)/C=C1\C=C2O[C@@H](C1)C[C@H]([C@@H](C)O)OC(=O)C[C@H](O)C[C@@H]1C[C@H](OC(=O)C(C)(C)C)C(C)(C)[C@](O)(C[C@@H]3C/C(=C/C(=O)OC)C[C@H](/C=C/C2(C)C)O3)O1 [BRYOSTATIN 17] | 188 | 0.16 (≈ 0.202 µM) | 0.019 (≈ 0.024 µM) | 0.16 (≈ 0.202 µM) | 0.16 (≈ 0.202 µM) | 0.16 (≈ 0.202 µM) | 0.16 (≈ 0.202 µM) | 0.16 (≈ 0.202 µM) |
| COC(=O)/C=C1/C[C@H]2C[C@]3(O)O[C@H](C[C@@H](O)CC(=O)O[C@@H]([C@@H](C)O)C[C@@H]4C/C(=C/C(=O)OC)C[C@@](O)(O4)C(C)(C)/C=C/[C@@H](C1)O2)C[C@H](OC(=O)C(C)(C)C)C3(C)C [BRYOSTATIN 18] | 4.82 | 0.42 (≈ 0.519 µM) | 0.0033 (≈ 0.00408 µM) | 0.42 (≈ 0.519 µM) | 0.42 (≈ 0.519 µM) | 0.42 (≈ 0.519 µM) | 0.42 (≈ 0.519 µM) | 0.42 (≈ 0.519 µM) |
